This passage reports IC50 results from patent US20260356856A1, “KRAS G12S AND G12C INHIBITORS” (MIRATI THERAPEUTICS, INC., priority 2023, published 2026).

Each structure is given as a SMILES string.

The target in experiment [1] is T1, KRas-mediated phosphorylation of ERK in H358 cells (Homo sapiens, UniProt P01116, G12C).
T1 construct: pERK HTRF read-out
Briefly: Inhibition of KRas-mediated phosphorylation of ERK (HTRF), H358 cells. Format: cell-based. The following applies: HTRF pERK, 3 h incubation. (In general: TR-FRET usually uses a lanthanide donor and a delayed reading to cut background.)

The target in experiment [2] is T2, KRas-mediated phosphorylation of ERK in MKN1 cells (Homo sapiens, UniProt P01116).
T2 construct: pERK HTRF read-out
T2 sequence (P01116 1-188 isoform P01116-2): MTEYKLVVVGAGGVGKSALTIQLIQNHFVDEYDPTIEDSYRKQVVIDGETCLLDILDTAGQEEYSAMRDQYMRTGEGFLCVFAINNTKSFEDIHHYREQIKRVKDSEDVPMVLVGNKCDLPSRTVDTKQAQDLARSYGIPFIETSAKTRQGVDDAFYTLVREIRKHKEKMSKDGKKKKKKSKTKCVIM
The experiment can be described thus: Inhibition of KRas-mediated phosphorylation of ERK (HTRF), MKN1 cells. The following applies: MKN1 cells (KRas WT); HTRF pERK; 3 h incubation. Format: cell-based. As to the method:
Inhibition of KRas Phosphorylation of ERK (HTRF) by Exemplary Compounds of Formula (Ia) or (Ib)
Cisbio HTRF Advanced pERK Assay Catalog #64AERPEH • Cells: MKN1, PSN1 • Procedure: • 1. Day 1: Seed 6,000 cells/well −25 μl/well in 384-well white solid bottom plate; RPM1_10% FBS. Incubate overnight at 37 °C/5% CO2. • 2.

In another experiment the target is T3, KRas G12C (Homo sapiens, UniProt P01116, G12C).
T3 construct: Biotinylated KRas (corresponding to amino acids 1-169, produced at Accelegan Inc.); biotin (biotinylated); purchased Accelegan Inc
T3 sequence (P01116 1-169 isoform P01116-2 G12C): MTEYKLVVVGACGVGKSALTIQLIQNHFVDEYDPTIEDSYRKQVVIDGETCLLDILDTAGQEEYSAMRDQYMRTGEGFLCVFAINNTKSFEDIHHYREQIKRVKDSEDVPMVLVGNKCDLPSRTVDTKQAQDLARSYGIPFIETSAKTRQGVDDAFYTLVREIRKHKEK
Briefly: KRas binding assay, TR-FRET displacement of Cy5 labelled tracer. The following applies: 60-minute incubation at room temperature, 1% DMSO, pH 7.5. In outline: (§1)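 Assay buffer was HEPES (50 mM, pH 7.5) with MgCl2 (5 mM), DTT (1 mM) and Tween-20 (0.005%). Biotinylated KRas spanning residues 1-169 met tracer, terbium streptavidin and compound (1% DMSO, final) for 60 minutes at ambient temperature before reading. POC values were fitted for IC50.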

The next experiment concerns the target T4, KRas G12S (Homo sapiens, UniProt P01116, G12S).
T4 construct: Biotinylated KRas (corresponding to amino acids 1-169, produced at Accelegan Inc.); biotin (biotinylated); purchased Accelegan Inc
The experiment is described as above. The following applies: 60-minute incubation at room temperature, 1% DMSO, pH 7.5. In outline: as §1

A further experiment concerns the target T5, KRas WT (Homo sapiens, UniProt P01116).
T5 construct: Biotinylated KRas (corresponding to amino acids 1-169, produced at Accelegan Inc.); biotin (biotinylated); purchased Accelegan Inc
The experiment is described as above. The following applies: 60-minute incubation at room temperature, 1% DMSO, pH 7.5. In outline:
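Biotinylated KRas (aa 1-169) incubated with Cy5-labelled tracer, terbium streptavidin and compound (1% DMSO final) in 50 mM HEPES pH 7.5, 5 mM MgCl2, 0.005% Tween-20, 1 mM DTT. Tracer displacement read by TR-FRET after 60 min at room temperature; POC values fitted to 4-parameter IC50 equation.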

Experiment [3] has as its target T6, KRas-mediated phosphorylation of ERK in A549 cells (Homo sapiens, UniProt P01116, G12S).
T6 construct: pERK HTRF read-out
Briefly: Inhibition of KRas-mediated phosphorylation of ERK (HTRF), A549 cells. The following applies: HTRF pERK, 3 h incubation. Format: cell-based.

The term IC50 denotes the concentration that inhibits the measured activity by half. A high value points to weaker potency.

T5 sequence (P01116 1-169 isoform P01116-2): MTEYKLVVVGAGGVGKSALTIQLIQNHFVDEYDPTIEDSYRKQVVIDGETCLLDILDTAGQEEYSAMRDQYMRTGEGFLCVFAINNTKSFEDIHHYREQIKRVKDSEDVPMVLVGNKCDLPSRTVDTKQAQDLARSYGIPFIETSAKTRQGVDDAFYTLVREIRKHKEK
T4 sequence (P01116 1-169 isoform P01116-2 G12S): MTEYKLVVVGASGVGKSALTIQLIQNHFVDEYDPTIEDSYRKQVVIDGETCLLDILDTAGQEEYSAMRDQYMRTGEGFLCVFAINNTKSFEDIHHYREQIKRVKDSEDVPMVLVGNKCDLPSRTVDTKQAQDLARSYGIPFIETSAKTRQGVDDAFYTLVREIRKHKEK
T1 sequence (P01116 1-188 isoform P01116-2 G12C): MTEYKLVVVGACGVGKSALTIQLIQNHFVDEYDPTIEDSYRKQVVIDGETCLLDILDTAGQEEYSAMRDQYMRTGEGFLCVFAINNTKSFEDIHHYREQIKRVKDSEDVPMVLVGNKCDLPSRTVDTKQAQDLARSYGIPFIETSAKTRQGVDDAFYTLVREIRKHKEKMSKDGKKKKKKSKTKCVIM
T6 sequence (P01116 1-188 isoform P01116-2 G12S): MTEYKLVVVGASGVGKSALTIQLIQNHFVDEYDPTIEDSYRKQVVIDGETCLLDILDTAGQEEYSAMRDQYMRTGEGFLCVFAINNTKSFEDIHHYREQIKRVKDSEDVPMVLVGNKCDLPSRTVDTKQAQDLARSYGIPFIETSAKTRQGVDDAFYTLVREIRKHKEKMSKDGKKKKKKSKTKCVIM

`N#Cc1c(N)sc2c(F)ccc(-c3c(Cl)cc4c(N5CCC(C(=O)Oc6ccc(F)cc6)CC5)nc(OC[C@@]56CCCN5C[C@H](F)C6)nc4c3F)c12` [Example 299, 4-fluorophenyl 1-(7-(2-amino-3-cyano-7-fluorobenzo[b]thiophen-4-yl)-6-chloro-8-fluoro-2-(((2R,7aS)-2-fluorotetrahydro-1H-pyrrolizin-7a(5H)-yl)methoxy)quinazolin-4-yl)piperidine-4-carboxylate]: the IC50 in experiment [1] is 12 nM; in experiment [2] it was 323 nM; at KRas G12C, 9 nM; at KRas G12S it was 22 nM; on KRas WT, 178 nM; in experiment [3], 93 nM.

Consider `COc1ccccc1OC(=O)C1CCN(c2nc(OC[C@@]34CCCN3C[C@H](F)C4)nc3c(F)c(-c4ccc(F)c5sc(N)c(C#N)c45)c(Cl)cc23)CC1` [Example 300, 2-methoxyphenyl 1-(7-(2-amino-3-cyano-7-fluorobenzo[b]thiophen-4-yl)-6-chloro-8-fluoro-2-(((2R,7aS)-2-fluorotetrahydro-1H-pyrrolizin-7a(5H)-yl)methoxy)quinazolin-4-yl)piperidine-4-carboxylate], for which the IC50 is 9 nM in experiment [1]; 408 nM in experiment [2]; 9 nM on KRas G12C; 85 nM on KRas G12S; 163 nM at KRas WT; 115 nM in experiment [3].

Regarding `N#Cc1c(N)sc2c(F)ccc(-c3c(Cl)cc4c(N5CCC(C(=O)Oc6ccc(Cl)cc6)CC5)nc(OC[C@@]56CCCN5C[C@H](F)C6)nc4c3F)c12` [Example 301, 4-chlorophenyl 1-(7-(2-amino-3-cyano-7-fluorobenzo[b]thiophen-4-yl)-6-chloro-8-fluoro-2-(((2R,7aS)-2-fluorotetrahydro-1H-pyrrolizin-7a(5H)-yl)methoxy)quinazolin-4-yl)piperidine-4-carboxylate], the IC50 in experiment [1] was 20 nM; in experiment [2] it was 264 nM; on KRas G12C, 16 nM; at KRas G12S, 43 nM; at KRas WT it was 142 nM; in experiment [3], 113 nM.

As for `N#Cc1c(N)sc2c(F)ccc(-c3c(Cl)cc4c(N5CCC(C(=O)Oc6cccc(F)c6)CC5)nc(OC[C@@]56CCCN5C[C@H](F)C6)nc4c3F)c12` [Example 302, 3-fluorophenyl 1-(7-(2-amino-3-cyano-7-fluorobenzo[b]thiophen-4-yl)-6-chloro-8-fluoro-2-(((2R,7aS)-2-fluorotetrahydro-1H-pyrrolizin-7a(5H)-yl)methoxy)quinazolin-4-yl)piperidine-4-carboxylate], the IC50 was 18 nM in experiment [1]; 286 nM in experiment [2]; 12 nM at KRas G12C; 25 nM at KRas G12S; 164 nM on KRas WT; 79 nM in experiment [3].

For the compound `CN1CC2(CCN(c3nc(OC[C@@]45CCCN4C[C@H](F)C5)nc4c(F)c(-c5ccc(F)c6sc(N)c(C#N)c56)c(Cl)cc34)CC2)C1=O` [Example 303, 2-amino-4-(6-chloro-8-fluoro-2-(((2R,7aS)-2-fluorotetrahydro-1H-pyrrolizin-7a(5H)-yl)methoxy)-4-(2-methyl-1-oxo-2,7-diazaspiro[3.5]nonan-7-yl)quinazolin-7-yl)-7-fluorobenzo[b]thiophene-3-carbonitrile], the IC50 in experiment [1] stood at 14 nM; in experiment [2], 4 nM; at KRas G12C, 3 nM; on KRas G12S, 3 nM; on KRas WT it was 4 nM; in experiment [3], 59 nM.

Turning to `CC(=O)N(C)C(=O)C(C)CCN(C)c1nc(OC[C@@]23CCCN2C[C@H](F)C3)nc2c(F)c(-c3ccc(F)c4sc(N)c(C#N)c34)c(Cl)cc12` (stereo partly drawn) [Example 304, N-acetyl-4-((7-(2-amino-3-cyano-7-fluorobenzo[b]thiophen-4-yl)-6-chloro-8-fluoro-2-(((2R,7aS)-2-fluorotetrahydro-1H-pyrrolizin-7a(5H)-yl)methoxy)quinazolin-4-yl)(methyl)amino)-N,2-dimethylbutanamide], the IC50 in experiment [1] was 3 nM; in experiment [2], 60 nM; on KRas G12C it was 5 nM; on KRas G12S, 4 nM; at KRas WT, 12 nM; in experiment [3], 3 nM.

As to `COCCN(C(C)=O)C(=O)C1CCN(c2nc(OC[C@@]34CCCN3C[C@H](F)C4)nc3c(F)c(-c4ccc(F)c5sc(N)c(C#N)c45)c(Cl)cc23)CC1` [Example 305, N-acetyl-1-(7-(2-amino-3-cyano-7-fluorobenzo[b]thiophen-4-yl)-6-chloro-8-fluoro-2-(((2R,7aS)-2-fluorotetrahydro-1H-pyrrolizin-7a(5H)-yl)methoxy)quinazolin-4-yl)-N-(2-methoxyethyl)piperidine-4-carboxamide], the IC50 amounted to 19 nM in experiment [1]; 78 nM in experiment [2]; 12 nM at KRas G12C; 17 nM at KRas G12S; 21 nM on KRas WT; 21 nM in experiment [3].

On to `CN(C(=O)CCCN(C)c1nc(OC[C@@]23CCCN2C[C@H](F)C3)nc2c(F)c(-c3ccc(F)c4sc(N)c(C#N)c34)c(Cl)cc12)C(=O)c1cnn(C)c1` [Example 306, N-(4-((7-(2-amino-3-cyano-7-fluorobenzo[b]thiophen-4-yl)-6-chloro-8-fluoro-2-(((2R,7aS)-2-fluorotetrahydro-1H-pyrrolizin-7a(5H)-yl)methoxy)quinazolin-4-yl)(methyl)amino)butanoyl)-N, 1-dimethyl-1H-pyrazole-4-carboxamide], for which the IC50 in experiment [1] is 45 nM; in experiment [2], 134 nM; on KRas G12C it was 5 nM; on KRas G12S, 7 nM; on KRas WT, 10 nM; in experiment [3], 92 nM.

As to `COCC(=O)N(C)C(=O)CCCN(C)c1nc(OC[C@@]23CCCN2C[C@H](F)C3)nc2c(F)c(-c3ccc(F)c4sc(N)c(C#N)c34)c(Cl)cc12` [Example 307, 4-((7-(2-amino-3-cyano-7-fluorobenzo[b]thiophen-4-yl)-6-chloro-8-fluoro-2-(((2R,7aS)-2-fluorotetrahydro-1H-pyrrolizin-7a(5H)-yl)methoxy)quinazolin-4-yl)(methyl)amino)-N-(2-methoxyacetyl)-N-methylbutanamide], the IC50 came to 15 nM in experiment [1]; 70 nM in experiment [2]; 3 nM at KRas G12C; 2 nM at KRas G12S; 8 nM on KRas WT; 5 nM in experiment [3].

As to `Cc1ccn(C(=O)CCNc2cc(O[C@@H](C)[C@@H]3CCCN3C)nc(-c3noc([C@@]4(C)CCCc5sc(N)c(C#N)c54)n3)n2)n1` [Example 318, (S)-2-amino-4-methyl-4-(3-(4-((3-(3-methyl-1H-pyrazol-1-yl)-3-oxopropyl)amino)-6-((S)-1-((S)-1-methylpyrrolidin-2-yl)ethoxy)pyrimidin-2-yl)-1,2,4-oxadiazol-5-yl)-4,5,6,7-tetrahydrobenzo[b]thiophene-3-carbonitrile], the IC50 is 908 nM in experiment [1]; 801 nM in experiment [2]; 2 nM at KRas G12C; 3 nM on KRas G12S; 12 nM at KRas WT; 17 nM in experiment [3].
